# Key:
# PDE 4 = experiment: Inhibition of phosphodiesterase 4 (enzyme preparation from human PMNL, [3H]-cAMP); format: biochemical; conditions: PDE 4 from human PMNL cytosol, 0.5 μM [3H]-cAMP
# Protocol: The PDE 4 activity is determined in enzyme preparations from human polymorphonuclear […] (PMNL) and the PDE 2, 3 and 5 activity is determined with PDE from human thrombocytes. Human blood was anti-coagulated with citrate. By centrifuging at 700×g for 20 minutes at room temperature, the thrombocyte-rich plasma in the supernatant is separated from the erythrocytes and leukocytes. The thrombocytes are lysed by ultrasound and used in the PDE 3 and PDE 5 assays. For the determination of the PDE 2 activity, the cytosolic thrombocyte fraction is purified on an anionic exchange column by means of NaCl gradients and the PDE 2 peak is obtained for the assay. The PMNLs for the PDE 4 determination are isolated by a subsequent dextran sedimentation, followed by a gradient centrifugation with Ficoll-Paque. After the cells have been washed twice, the erythrocytes, still contained, are lysed within 6 minutes at 4° C. by the addition of 10 mL of hypotonic buffer (155 mM of NH4Cl, 10 mM of NaHCO3, 0.1 mM of EDTA, pH=7.4). The PMNLs, which are still intact, are washed twice with PBS and lysed with ultrasound. The supernatant of a one-hour centrifugation at 4° C. at 48,000×g contains the cytosolic fraction of the PDE 4 and is used for the PDE 4 measurements.
# The phosphodiesterase activity is determined using the method described by Thompson et al. with some modifications (Thompson, W. J. and M. M. Appleman, Assay of cyclic nucleotide phosphodiesterase and resolution of multiple molecular forms of the enzyme, Adv. Cycl. Nucl. Res. 1979, 10, 69–92).
# The reaction mixtures contain 50 mM of tris hydrochloride (pH 7.4), 5 mM of magnesium chloride, the inhibitors in various concentrations, the corresponding enzyme preparation as well as the further components necessary for determining the individual isoenzymes (see below). The reaction is started by the addition of the substrate, 0.5 μM of [^3H]-cAMP or [^3H]-cGMP (approximately 6000 CPM per test). The final volume is […]. Test substances are mixed as stock solutions in DMSO. The DMSO concentration in the reaction mixture is 1% v/v. The PDE activity is not affected by this concentration of DMSO. After the reaction is started by the addition of substrate, samples are incubated for 30 minutes at 37° C. The reaction is stopped by heating the test tubes for 2 minutes at 110° C. The samples remain for a further 10 minutes in ice. The addition of 30 μL of 5′-nucleotidase (1 mg/mL, from a poisonous snake suspension from Crotalus adamanteus) is followed by a 10-minutes incubation at 37° C. The samples are stopped on ice, in each case 400 μL of a mixture of Dowex, water and ethanol (1+1+1) is added, mixed well and incubated once again for 15 minutes on ice. The reaction vessels are centrifuged for 20 minutes at 3000×g. Aliquots of the supernatant (200 μL) are transferred directly to scintillation vessels. After the addition of 3 mL of scintillator, the samples are measured in the beta counter.
# [^3H]-cAMP is used as substrate for the determination of the PDE 4, 3 and 2 activity and [^3H]-cGMP is used as substrate for the determination of the PDE 5 activity. The enzyme activities, which are nonspecific in each case, are determined in the presence of 100 μM of Rolipram for the determination of PDE 4 and in the presence of 100 μM of IBMX for the determination of the PDE 3 and 5 and subtracted from the test values. The incubation formulations of the PDE 3 assays contained 10 μM of Rolipram, in order to inhibit possible contaminations by PDE 4. The PDE 2 is tested with an SPA assay of the Amersham Company. The assay is carried out in the presence of the activator of the PDE 2 (5 μM of cGMP).
IC50 (PDE 4) [nM],melting point [°C],Compound
4,–,O=C(Nc1c(Cl)cncc1Cl)C(=O)c1cn(Cc2ccc(F)cc2)c2ncccc12 [Example 14]
2,152 to 154,CC(C)Cn1cc(C(=O)C(=O)Nc2c(Cl)cncc2Cl)c2cccnc21 [Example 27]

# Reference: patent publication US7169787B2, “7-azaindoles, use thereof as phosphodiesterase 4 inhibitors and method for producing the same” (Elbion AG, priority 2000, dated 2007)
